Converted amounts (≈) assume the structure as drawn. “Also recorded” adds a separate entry of the source.
How the values were obtained:
human factor Xa = target: T1, human factor Xa (Homo sapiens, UniProt P00742); assay: Inhibition of factor Xa, enzyme-kinetic measurement with chromogenic substrate; format: biochemical; conditions: FXa assay; (S)-form versus (R)-form at the tetrahydrofuran carbon
T1 construct: released from the colourless chromogenic substrate by human factor Xa; purchased Calbiochem
Protocol: The compounds listed in the Experimental Section were investigated for their effect on the inhibition of factor Xa as follows:
Enzyme-kinetic measurement with chromogenic substrate. The quantity of p-nitroaniline (pNA) released from the colourless chromogenic substrate by human factor Xa is determined photometrically at 405 nm. It is proportional to the activity of the enzyme used. The inhibition of the enzyme activity by the test substance (in relation to the solvent control) is determined at various concentrations of test substance and from this the IC50 is calculated, as the concentration which inhibits the factor Xa used by 50%.
Tris(hydroxymethyl)-aminomethane buffer (100 mMol) and sodium chloride (150 mMol), pH 8.0 plus 1 mg/ml Human Albumin Fraction V, protease-free Factor Xa (Calbiochem), spec. activity: 217 IU/mg, final concentration: 7 IU/ml for each reaction mixture Substrate S 2765 (Chromogenix), final concentration: 0.3 mM/l (1 KM) for each reaction mixture Test substance: final concentration 100, 30, 10, 3, 1, 0.3, 0.1, 0.03, 0.01, 0.003, 0.001 μMol/l
10 μl of a 23.5-times concentrated starting solution of the test substance or solvent (control), 175 μl of TRIS/HSA buffer and 25 μl of a 65.8 U/L Factor Xa working solution are incubated for 10 minutes at 37° C. After the addition of 25 μl of S 2765 working solution (2.82 mMol/l) the sample is measured in a photometer (SpectraMax 250) at 405 nm for 600 seconds at 37° C.
1. Determining the maximum increase (deltaOD/minutes) over 21 measuring points. 2. Determining the % inhibition based on the solvent control. 3. Plotting a dosage/activity curve (% inhibition vs substance concentration). 4. Determining the IC50 by interpolating the X-value (substance concentration) of the dosage/activity curve at Y=50% inhibition.

[1] = Solubility in different aqueous media; format: physicochemical; conditions: for solubility: aqueous medium
[2] = Intrinsic dissolution rate in aqueous media, rotating disc method; format: physicochemical; conditions: for dissolution rate: 37° C., 200 rpm
Protocol: The intrinsic dissolution rate was determined in aqueous media covering a range of pH 1.1-7.4 using the rotating disc method which maintains a constant surface area. 5 mg of drug substance was compressed to form a disc at 356.1 N for 60 s. These discs were mounted to specially designed sample holders which fit into a Sotax dissolution tester. The dissolution media (37° C.) were stirred at 200 rpm. Samples were automatically withdrawn every second minute from the dissolution vessel and assayed via UV spectrophotometry. The intrinsic dissolution rate expressed in μg/cm^2/min was calculated using the slope of the concentration versus time plot and from the linear portion of the slope of the dissolution curve, volume of dissolution medium (35 ml) and area (diameter: 2 mm) of the exposed disk.

T1 sequence (P00742 235-488 limits assumed): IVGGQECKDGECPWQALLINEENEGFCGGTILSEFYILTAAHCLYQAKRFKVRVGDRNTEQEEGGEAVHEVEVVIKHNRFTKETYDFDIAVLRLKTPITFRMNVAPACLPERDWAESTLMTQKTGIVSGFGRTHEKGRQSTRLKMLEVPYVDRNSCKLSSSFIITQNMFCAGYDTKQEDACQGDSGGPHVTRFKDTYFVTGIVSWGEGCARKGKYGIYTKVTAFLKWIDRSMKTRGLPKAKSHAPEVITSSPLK
T1 sequence (P00742 41-179 partner limits assumed): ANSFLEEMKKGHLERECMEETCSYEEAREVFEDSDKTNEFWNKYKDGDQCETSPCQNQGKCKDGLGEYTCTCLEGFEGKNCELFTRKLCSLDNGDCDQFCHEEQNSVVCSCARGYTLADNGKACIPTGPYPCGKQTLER

C[C@H]1CN(C)CCc2ccc(NC(=O)[C@]3(NC(=O)c4ccc(Cl)s4)CCOC3)cc21 [(3S)-3-[(5-chloro-thiophen-2-yl)-carbonylamino]-N-((5R)-3,5-dimethyl-2,3,4,5-tetrahydro-1H-benzo[d]azepin-7-yl)-tetrahydrofuran-3-carboxylic acid amide]
IC50 at an approximately x-fold lower plasma concentration compared to the (R)-enantiomer / corresponding (3R)-diastereoisomer (human factor Xa): approximately 10 fold

C[C@@H]1CN(C)CCc2ccc(NC(=O)[C@]3(NC(=O)c4ccc(Cl)s4)CCOC3)cc21 [(3S)-3-[(5-chloro-thiophen-2-yl)-carbonylamino]-N-((5S)-3,5-dimethyl-2,3,4,5-tetrahydro-1H-benzo[d]azepin-7-yl)-tetrahydrofuran-3-carboxylic acid amide]
IC50 at an approximately x-fold lower plasma concentration compared to the (R)-enantiomer / corresponding (3R)-diastereoisomer (human factor Xa): approximately 7 fold

CN1CCc2ccc(NC(=O)[C@]3(NC(=O)c4ccc(Br)s4)CCOC3)cc2CC1 [(S)-3-[(5-bromo-thiophen-2-yl)-carbonylamino]-N-(3-methyl-2,3,4,5-tetrahydro-1H-benzo[d]azepin-7-yl)-tetrahydrofuran-3-carboxylic acid amide]
IC50 at an approximately x-fold lower plasma concentration compared to the (R)-enantiomer / corresponding (3R)-diastereoisomer (human factor Xa): approximately 9 fold

CN1CCc2ccc(NC(=O)[C@]3(NC(=O)c4ccc(Cl)s4)CCOC3)cc2CC1 [(S)-3-[(5-chloro-thiophen-2-yl)-carbonylamino]-N-(3-methyl-2,3,4,5-tetrahydro-1H-benzo[d]azepin-7-yl)-tetrahydrofuran-3-carboxylic acid amide]
IC50 at an approximately x-fold lower plasma concentration compared to the (R)-enantiomer / corresponding (3R)-diastereoisomer (human factor Xa): approximately 8 fold | solubility in words ([1]; acidic media): excellent solubility; also recorded: high solubility | solubility ([1]; aqueous buffer, medium: 0.01 N NaOH): 46 µg/mL (≈ 0.106 mM) | solubility ([1]; aqueous buffer, medium: pH 2.2): > 10000 µg/mL | solubility ([1]; aqueous buffer, medium: pH 4.0): > 10000 µg/mL | solubility ([1]; aqueous buffer, medium: pH 6.0): > 10000 µg/mL | solubility ([1]; aqueous buffer, medium: pH 7.4): 1800 µg/mL (≈ 4.15 mM) | solubility ([1]; simulated gastric fluid, medium: 0.1 N HCl): > 10000 µg/mL | solubility ([1]; medium: water): 280 µg/mL (≈ 0.645 mM) | pH of the saturated solution ([1]; medium: 0.01 N NaOH): 11.8 | pH of the saturated solution ([1]; medium: 0.1 N HCl): 1.0 | pH of the saturated solution ([1]; medium: pH 2.2): 2.4 | pH of the saturated solution ([1]; medium: pH 4.0): 4.3 | pH of the saturated solution ([1]; medium: pH 6.0): 6.3 | pH of the saturated solution ([1]; medium: pH 7.4): 7.5 | pH of the saturated solution ([1]; medium: water): 8.6 | solubility in words ([1]; neutral and basic media): reduced solubility | dissolution rate in words ([2]; pH 7.4): acceptable dissolution rates | dissolution rate ([2]; pH of aqueous medium 1.1): 8220 μg/cm^2/min | dissolution rate ([2]; pH of aqueous medium 2.3): 4520 μg/cm^2/min | dissolution rate ([2]; pH of aqueous medium 3.2): 4000 μg/cm^2/min | dissolution rate ([2]; pH of aqueous medium 4.1): 3110 μg/cm^2/min | dissolution rate ([2]; pH of aqueous medium 5.1): 4015 μg/cm^2/min | dissolution rate ([2]; pH of aqueous medium 6.0): 4140 μg/cm^2/min | dissolution rate ([2]; pH of aqueous medium 7.4): 240 μg/cm^2/min | dissolution rate in words ([2]; up to pH 6.0): very fast dissolution rates

Cc1cc(NC(=O)[C@]2(NC(=O)c3ccc(Br)s3)CCOC2)ccc1N1CCOCCC1=O [(S)-5-bromo-thiophene-2-carboxylic acid-N-{3-[3-methyl-4-(5-oxo-[1,4]oxazepan-4-yl)-phenylcarbamoyl]-tetrahydrofuran-3-yl}-amide]
IC50 at an approximately x-fold lower plasma concentration compared to the (R)-enantiomer / corresponding (3R)-diastereoisomer (human factor Xa): approximately 16 fold

Cc1cc(NC(=O)[C@]2(NC(=O)c3ccc(Cl)s3)CCOC2)ccc1N1CCOCC/C1=N\C#N [(S)-5-chloro-thiophene-2-carboxylic acid-N-{3-[3-methyl-4-(5-cyanimin-[1.4]oxazepan-4-yl)-phenylcarbamoyl]-tetrahydrofuran-3-yl}-amide]
IC50 at an approximately x-fold lower plasma concentration compared to the (R)-enantiomer / corresponding (3R)-diastereoisomer (human factor Xa): approximately 17 fold

N#C/N=C1\CCOCCN1c1ccc(NC(=O)[C@]2(NC(=O)c3ccc(Cl)s3)CCOC2)cc1 [(S)-5-chloro-thiophene-2-carboxylic acid-N-{3-[4-(5-cyanimin-[1.4]oxazepan-4-yl)-phenylcarbamoyl]-tetrahydrofuran-3-yl}-amide]
IC50 at an approximately x-fold lower plasma concentration compared to the (R)-enantiomer / corresponding (3R)-diastereoisomer (human factor Xa): approximately 15 fold
